From ChEMBL document CHEMBL1138125, “A new chemical tool for exploring the role of the PDE4D isozyme in leukocyte function” (Bioorg Med Chem Lett, 2006)

Key:
[1] = molecular target: Histamine H3 receptor (Homo sapiens) (UniProt Q9Y5N1); test: Binding affinity to Histamine H3 receptor at 10 uM
[2] = molecular target: Muscarinic acetylcholine receptor M3 (Homo sapiens) (UniProt P20309); test: Binding affinity to Muscarinic M3 receptor at 10 uM
[3] = molecular target: Acetylcholine receptor; alpha1/beta1/delta/gamma (Homo sapiens) (UniProt P02708+P07510+P11230+Q07001); test: Binding affinity to nicotinic muscle receptor at 10 uM; type: protein-complex assay
Cynomolgus monkey = test: Inhibition of eosinophil infiltration in bronchoalveolar lavage fluid from cynomolgus monkeys exposed to Ascaris suum.; type: functional, Macaca fascicularis, Lung
[4] = molecular target: Glutamate [NMDA] receptor (Homo sapiens) (UniProt Q05586+Q12879+Q13224+O15399+O60391+Q14957+Q8TCU5); test: Binding affinity to NMDA receptor at 10 uM; type: protein-complex assay
[5] = molecular target: Vasopressin V1 receptor (Homo sapiens) (UniProt P37288+P47901); test: Binding affinity to vasopressin V1 receptor at 10 uM; type: protein assay
[6] = molecular target: cAMP and cAMP-inhibited cGMP 3',5'-cyclic phosphodiesterase 10A (Homo sapiens, UniProt Q9Y233); test: Inhibition of PDE10
[7] = molecular target: T1, 3',5'-cyclic-AMP phosphodiesterase 4B (Homo sapiens, UniProt Q07343); test: Inhibition of release of TNF alpha in human whole blood; type: functional, tissue-based
[8] = molecular target: Type-1 angiotensin II receptor (Homo sapiens) (UniProt P30556); test: Binding affinity to angiotensin II receptor type 1 at 10 uM
[9] = molecular target: Mu-type opioid receptor (Homo sapiens) (UniProt P35372); test: Binding affinity to opiate mu receptor at 10 uM
[10] = molecular target: Beta-2 adrenergic receptor (Homo sapiens) (UniProt P07550); test: Binding affinity to adrenergic beta2 receptor at 10 uM
[11] = molecular target: Adenosine receptor A2a (Homo sapiens) (UniProt P29274); test: Binding affinity to adenosine A2A receptor at 10 uM
[12] = molecular target: High affinity choline transporter 1 (Homo sapiens) (UniProt Q9GZV3); test: Binding affinity to choline transporter at 10 uM
[13] = Binding affinity to GABA receptor at 10 uM
[14] = molecular target: Platelet-activating factor receptor (Homo sapiens) (UniProt P25105); test: Binding affinity to platelet activating factor at 10 uM
Phosphodiesterase 3 = Phosphodiesterase 3 (Homo sapiens, UniProt Q14432+Q13370); test: Inhibition of PDE3; type: protein assay
[15] = molecular target: T2, 3',5'-cyclic-AMP phosphodiesterase 4D (Homo sapiens, UniProt Q08499); conditions: Blood
Description: Inhibition of release of Eosinophil derived neurotoxin in human whole blood

[16] = molecular target: Adrenergic receptor alpha-2 (Homo sapiens) (UniProt P08913+P18825+P18089); test: Binding affinity to Adrenergic alpha-2 receptor at 10 uM; type: protein assay
[17] = molecular target: T3, Voltage-gated L-type calcium channel (Homo sapiens, UniProt Q13936+Q13698+Q01668+O60840); test: Binding affinity to DHP sensitive calcium channel L type at 10 uM; type: protein assay
[18] = molecular target: Beta-1 adrenergic receptor (Homo sapiens) (UniProt P08588); test: Binding affinity to adrenergic beta-1 receptor at 10 uM
[19] = molecular target: T2, 3',5'-cyclic-AMP phosphodiesterase 4D; test: Inhibition of release of LTE4 in human whole blood; type: functional, tissue-based
[20] = molecular target: T2, 3',5'-cyclic-AMP phosphodiesterase 4D; test: Inhibition of PDE4D
[21] = molecular target: T1, 3',5'-cyclic-AMP phosphodiesterase 4B; test: Inhibition of PDE4B
[22] = molecular target: B2 bradykinin receptor (Homo sapiens) (UniProt P30411); test: Binding affinity to bradykinin B2 receptor at 10 uM
[23] = molecular target: D(2) dopamine receptor (Homo sapiens) (UniProt P14416); test: Binding affinity to dopamine D2 receptor at 10 uM
[24] = molecular target: Kappa-type opioid receptor (Homo sapiens) (UniProt P41145); test: Binding affinity to opiate kappa receptor at 10 uM
[25] = molecular target: 3',5'-cyclic-AMP phosphodiesterase 4C (Homo sapiens, UniProt Q08493); test: Inhibition of PDE4C
[26] = molecular target: Histamine H2 receptor (Homo sapiens) (UniProt P25021); test: Binding affinity to Histamine H2 receptor at 10 uM
[27] = molecular target: High affinity cAMP-specific and IBMX-insensitive 3',5'-cyclic phosphodiesterase 8B (Homo sapiens, UniProt O95263); test: Inhibition of PDE8B
[28] = molecular target: Muscarinic acetylcholine receptor M1 (Homo sapiens) (UniProt P11229); test: Binding affinity to Muscarinic M1 receptor at 10 uM
[29] = molecular target: T2, 3',5'-cyclic-AMP phosphodiesterase 4D; test: cAMP elevation in U937 cells; type: functional, cell-based, U-937
[30] = molecular target: Adenosine receptor A3 (Homo sapiens) (UniProt P0DMS8); test: Binding affinity to adenosine A3 receptor at 10 uM
[31] = molecular target: High affinity cAMP-specific and IBMX-insensitive 3',5'-cyclic phosphodiesterase 8A (Homo sapiens, UniProt O60658); test: Inhibition of PDE8A
[32] = molecular target: B1 bradykinin receptor (Homo sapiens) (UniProt P46663); test: Binding affinity to bradykinin B1 receptor at 10 uM
[33] = molecular target: T3, Voltage-gated L-type calcium channel; test: Binding affinity to dilitiazem sensitive calcium channel L type at 10 uM; type: protein assay
[34] = molecular target: Histamine H1 receptor (Homo sapiens) (UniProt P35367); test: Binding affinity to Histamine H1 receptor at 10 uM
[35] = molecular target: 3',5'-cyclic-AMP phosphodiesterase 4A (Homo sapiens, UniProt P27815); test: Inhibition of PDE4A
[36] = molecular target: 5-hydroxytryptamine receptor 4 (Homo sapiens) (UniProt Q13639); test: Binding affinity to serotonin 5HT4 receptor at 10 uM
[37] = molecular target: High affinity cGMP-specific 3',5'-cyclic phosphodiesterase 9A (Homo sapiens, UniProt O76083); test: Inhibition of PDE9
[38] = molecular target: Sodium-dependent noradrenaline transporter (Homo sapiens) (UniProt P23975); test: Binding affinity to norepinephrine transporter at 10 uM
[39] = molecular target: Muscarinic acetylcholine receptor M2 (Homo sapiens) (UniProt P08172); test: Binding affinity to Muscarinic M2 receptor at 10 uM
[40] = molecular target: 5-hydroxytryptamine receptor 7 (Homo sapiens) (UniProt P34969); test: Binding affinity to serotonin 5HT7 receptor at 10 uM
[41] = molecular target: cGMP-dependent 3',5'-cyclic phosphodiesterase (Homo sapiens, UniProt O00408); test: Inhibition of PDE2
[42] = molecular target: Glutamate receptor ionotropic kainate (Homo sapiens) (UniProt P39086+Q16478+Q16099+Q13002+Q13003); test: Binding affinity to kainate receptor at 10 uM; type: protein-complex assay
[43] = molecular target: Substance-P receptor (Homo sapiens) (UniProt P25103); test: Binding affinity to neurokinin K1 receptor at 10 uM
[44] = molecular target: T3, Voltage-gated L-type calcium channel; test: Binding affinity to verapamil sensitive calcium channel L type at 10 uM; type: protein assay
[45] = Binding affinity to nicotinic neuronal receptor at 10 uM
[46] = molecular target: Sodium-dependent serotonin transporter (Homo sapiens) (UniProt P31645); test: Binding affinity to serotonin transporter at 10 uM
[47] = molecular target: Type-2 angiotensin II receptor (Homo sapiens) (UniProt P50052); test: Binding affinity to angiotensin II receptor type 2 at 10 uM
[48] = molecular target: Muscarinic acetylcholine receptor M4 (Homo sapiens) (UniProt P08173); test: Binding affinity to Muscarinic M4 receptor at 10 uM
[49] = molecular target: D(4) dopamine receptor (Homo sapiens) (UniProt P21917); test: Binding affinity to dopamine D4 receptor at 10 uM
[50] = molecular target: Glutamate receptor ionotropic AMPA (Homo sapiens) (UniProt P48058+P42263+P42262+P42261); test: Binding affinity to AMPA receptor at 10 uM; type: protein-complex assay
[51] = molecular target: cGMP-specific 3',5'-cyclic phosphodiesterase (Homo sapiens, UniProt O76074); test: Inhibition of PDE5
[52] = molecular target: D(3) dopamine receptor (Homo sapiens) (UniProt P35462); test: Binding affinity to dopamine D3 receptor at 10 uM
[53] = molecular target: Adrenergic receptor alpha-1 (Homo sapiens) (UniProt P35348+P25100+P35368); test: Binding affinity to Adrenergic alpha-1 receptor at 10 uM; type: protein assay
[54] = Binding affinity to GABA transporter at 10 uM
[55] = molecular target: Glucocorticoid receptor (Homo sapiens) (UniProt P04150); test: Binding affinity to glucocorticoid receptor at 10 uM
[56] = molecular target: Adenosine receptor A1 (Homo sapiens) (UniProt P30542); test: Binding affinity to adenosine A1 receptor at 10 uM
[57] = molecular target: Sodium-dependent dopamine transporter (Homo sapiens) (UniProt Q01959); test: Binding affinity to dopamine transporter at 10 uM
[58] = molecular target: Vasopressin V2 receptor (Homo sapiens) (UniProt P30518); test: Binding affinity to vasopressin V2 receptor at 10 uM
[59] = molecular target: D(1A) dopamine receptor (Homo sapiens) (UniProt P21728); test: Binding affinity to dopamine D1 receptor at 10 uM
[60] = molecular target: Melanocortin receptor 4 (Homo sapiens) (UniProt P32245); test: Binding affinity to MCR4 at 10 uM
[61] = molecular target: Thyroid hormone receptor (Homo sapiens) (UniProt P10827+P10828); test: Binding affinity to thyroid hormone receptor at 10 uM; type: protein-complex assay
[62] = molecular target: Delta-type opioid receptor (Homo sapiens) (UniProt P41143); test: Binding affinity to opiate delta receptor at 10 uM
[63] = molecular target: Voltage-dependent N-type calcium channel subunit alpha-1B (Homo sapiens) (UniProt Q00975); test: Binding affinity to calcium channel N type at 10 uM
[64] = molecular target: 5-hydroxytryptamine receptor 1A (Homo sapiens) (UniProt P08908); test: Binding affinity to serotonin 5HT1A receptor at 10 uM
[65] = molecular target: Serotonin 3 (5-HT3) receptor (Homo sapiens) (UniProt P46098+A5X5Y0+O95264+Q70Z44+Q8WXA8); test: Binding affinity to serotonin 5HT3 receptor at 10 uM; type: protein-complex assay
[66] = molecular target: Dual 3',5'-cyclic-AMP and -GMP phosphodiesterase 11A (Homo sapiens, UniProt Q9HCR9); test: Inhibition of PDE11

T2 sequence (Q08499 whole entry): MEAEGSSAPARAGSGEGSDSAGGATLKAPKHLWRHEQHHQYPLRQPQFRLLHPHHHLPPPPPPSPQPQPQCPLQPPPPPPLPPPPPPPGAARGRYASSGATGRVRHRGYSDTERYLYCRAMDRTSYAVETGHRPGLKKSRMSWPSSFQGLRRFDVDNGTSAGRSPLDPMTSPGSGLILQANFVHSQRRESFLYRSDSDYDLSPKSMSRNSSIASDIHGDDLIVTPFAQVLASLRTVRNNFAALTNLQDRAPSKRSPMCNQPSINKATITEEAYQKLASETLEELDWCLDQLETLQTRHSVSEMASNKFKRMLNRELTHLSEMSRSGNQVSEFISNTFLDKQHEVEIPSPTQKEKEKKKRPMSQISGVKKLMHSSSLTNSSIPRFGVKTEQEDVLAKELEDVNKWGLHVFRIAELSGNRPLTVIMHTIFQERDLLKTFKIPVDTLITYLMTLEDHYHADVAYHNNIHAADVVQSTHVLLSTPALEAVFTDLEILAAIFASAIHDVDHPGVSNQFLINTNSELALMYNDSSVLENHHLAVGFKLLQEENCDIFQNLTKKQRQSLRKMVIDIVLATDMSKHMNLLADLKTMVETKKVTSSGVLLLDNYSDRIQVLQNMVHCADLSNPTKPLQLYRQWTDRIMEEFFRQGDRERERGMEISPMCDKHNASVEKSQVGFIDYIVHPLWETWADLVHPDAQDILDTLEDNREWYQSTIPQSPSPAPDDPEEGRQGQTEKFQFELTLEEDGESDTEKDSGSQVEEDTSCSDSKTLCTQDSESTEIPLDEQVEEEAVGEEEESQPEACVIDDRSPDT
High affinity cGMP-specific 3',5'-cyclic phosphodiesterase 9A, sequence (O76083 whole entry): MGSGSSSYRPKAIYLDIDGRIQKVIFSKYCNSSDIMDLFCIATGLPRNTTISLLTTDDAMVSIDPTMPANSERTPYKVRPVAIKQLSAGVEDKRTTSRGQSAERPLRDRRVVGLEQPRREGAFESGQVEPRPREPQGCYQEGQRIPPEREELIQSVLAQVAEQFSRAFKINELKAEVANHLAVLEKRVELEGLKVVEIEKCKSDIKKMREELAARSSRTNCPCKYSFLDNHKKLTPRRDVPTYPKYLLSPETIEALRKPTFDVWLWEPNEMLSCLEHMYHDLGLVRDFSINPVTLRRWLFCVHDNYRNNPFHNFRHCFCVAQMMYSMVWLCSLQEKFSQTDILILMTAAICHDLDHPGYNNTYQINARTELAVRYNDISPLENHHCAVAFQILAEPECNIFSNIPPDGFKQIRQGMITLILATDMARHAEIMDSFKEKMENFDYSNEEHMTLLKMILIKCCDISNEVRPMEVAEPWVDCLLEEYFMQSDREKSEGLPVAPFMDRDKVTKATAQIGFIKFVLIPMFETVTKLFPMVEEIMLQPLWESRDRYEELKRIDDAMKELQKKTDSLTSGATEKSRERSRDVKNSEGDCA
High affinity cAMP-specific and IBMX-insensitive 3',5'-cyclic phosphodiesterase 8A, sequence (O60658 whole entry): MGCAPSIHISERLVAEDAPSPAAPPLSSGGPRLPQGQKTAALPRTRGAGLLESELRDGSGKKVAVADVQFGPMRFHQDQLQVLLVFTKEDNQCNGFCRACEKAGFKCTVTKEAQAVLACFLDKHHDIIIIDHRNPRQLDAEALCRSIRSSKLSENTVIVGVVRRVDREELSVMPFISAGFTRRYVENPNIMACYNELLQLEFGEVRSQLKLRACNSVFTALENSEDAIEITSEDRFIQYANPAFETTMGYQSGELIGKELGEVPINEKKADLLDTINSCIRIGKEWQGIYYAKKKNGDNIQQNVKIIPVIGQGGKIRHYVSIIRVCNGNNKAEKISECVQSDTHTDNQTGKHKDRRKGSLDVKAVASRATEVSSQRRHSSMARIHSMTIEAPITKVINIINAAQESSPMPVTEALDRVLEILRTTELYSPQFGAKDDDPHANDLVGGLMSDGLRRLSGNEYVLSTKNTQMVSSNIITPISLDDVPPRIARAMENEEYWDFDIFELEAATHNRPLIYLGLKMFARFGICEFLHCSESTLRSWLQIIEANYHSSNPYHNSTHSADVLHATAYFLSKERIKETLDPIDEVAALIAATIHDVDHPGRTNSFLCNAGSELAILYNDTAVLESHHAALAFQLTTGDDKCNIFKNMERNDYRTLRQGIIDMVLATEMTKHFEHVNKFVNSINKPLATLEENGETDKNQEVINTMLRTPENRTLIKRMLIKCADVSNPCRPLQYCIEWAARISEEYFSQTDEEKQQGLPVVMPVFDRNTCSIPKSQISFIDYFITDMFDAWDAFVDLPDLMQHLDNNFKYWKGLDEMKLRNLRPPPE
High affinity cAMP-specific and IBMX-insensitive 3',5'-cyclic phosphodiesterase 8B, sequence (O95263 whole entry): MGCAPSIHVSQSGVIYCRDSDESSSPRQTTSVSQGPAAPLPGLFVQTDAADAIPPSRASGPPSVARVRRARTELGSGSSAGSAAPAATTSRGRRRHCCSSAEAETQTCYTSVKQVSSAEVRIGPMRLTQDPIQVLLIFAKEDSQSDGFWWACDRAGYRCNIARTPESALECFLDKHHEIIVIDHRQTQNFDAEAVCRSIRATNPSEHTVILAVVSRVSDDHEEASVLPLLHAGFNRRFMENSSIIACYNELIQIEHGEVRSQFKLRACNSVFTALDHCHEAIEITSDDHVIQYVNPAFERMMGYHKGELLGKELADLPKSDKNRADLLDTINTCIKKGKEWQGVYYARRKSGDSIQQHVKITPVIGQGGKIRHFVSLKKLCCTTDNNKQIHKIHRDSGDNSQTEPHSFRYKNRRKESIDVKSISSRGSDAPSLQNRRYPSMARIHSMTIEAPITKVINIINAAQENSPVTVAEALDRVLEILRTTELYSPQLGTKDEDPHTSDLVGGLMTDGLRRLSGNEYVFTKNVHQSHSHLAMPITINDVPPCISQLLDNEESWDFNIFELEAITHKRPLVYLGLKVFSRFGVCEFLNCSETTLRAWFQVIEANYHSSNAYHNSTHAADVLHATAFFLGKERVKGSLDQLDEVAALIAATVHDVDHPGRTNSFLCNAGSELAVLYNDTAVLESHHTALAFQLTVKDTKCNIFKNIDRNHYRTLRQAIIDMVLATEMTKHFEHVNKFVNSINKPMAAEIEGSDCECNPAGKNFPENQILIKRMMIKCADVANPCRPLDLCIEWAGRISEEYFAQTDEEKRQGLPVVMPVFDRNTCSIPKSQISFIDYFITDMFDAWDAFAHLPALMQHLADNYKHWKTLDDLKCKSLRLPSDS
cGMP-dependent 3',5'-cyclic phosphodiesterase, sequence (O00408 whole entry): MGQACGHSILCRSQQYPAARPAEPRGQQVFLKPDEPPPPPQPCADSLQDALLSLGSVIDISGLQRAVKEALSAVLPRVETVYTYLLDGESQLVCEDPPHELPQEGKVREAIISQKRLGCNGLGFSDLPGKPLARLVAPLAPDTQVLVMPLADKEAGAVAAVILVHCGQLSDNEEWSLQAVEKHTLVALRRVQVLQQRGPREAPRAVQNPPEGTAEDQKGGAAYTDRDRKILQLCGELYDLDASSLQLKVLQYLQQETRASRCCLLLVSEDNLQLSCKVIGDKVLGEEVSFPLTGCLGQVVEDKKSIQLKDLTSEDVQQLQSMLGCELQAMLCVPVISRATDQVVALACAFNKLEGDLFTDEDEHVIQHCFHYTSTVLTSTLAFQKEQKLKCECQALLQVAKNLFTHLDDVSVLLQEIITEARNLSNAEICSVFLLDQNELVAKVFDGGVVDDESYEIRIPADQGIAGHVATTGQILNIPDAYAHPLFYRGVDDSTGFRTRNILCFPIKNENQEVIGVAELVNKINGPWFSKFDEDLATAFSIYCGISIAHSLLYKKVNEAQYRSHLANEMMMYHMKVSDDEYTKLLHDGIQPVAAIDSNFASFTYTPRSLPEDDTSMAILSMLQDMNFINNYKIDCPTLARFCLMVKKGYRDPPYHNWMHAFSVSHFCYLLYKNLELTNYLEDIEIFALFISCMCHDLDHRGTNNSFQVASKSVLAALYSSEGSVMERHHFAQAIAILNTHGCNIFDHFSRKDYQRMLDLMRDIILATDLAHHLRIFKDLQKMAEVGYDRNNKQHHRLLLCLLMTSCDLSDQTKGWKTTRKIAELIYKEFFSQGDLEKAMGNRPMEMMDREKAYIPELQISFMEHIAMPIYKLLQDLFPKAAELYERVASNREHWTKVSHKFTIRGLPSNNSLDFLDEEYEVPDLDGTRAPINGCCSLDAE
T1 sequence (Q07343 whole entry): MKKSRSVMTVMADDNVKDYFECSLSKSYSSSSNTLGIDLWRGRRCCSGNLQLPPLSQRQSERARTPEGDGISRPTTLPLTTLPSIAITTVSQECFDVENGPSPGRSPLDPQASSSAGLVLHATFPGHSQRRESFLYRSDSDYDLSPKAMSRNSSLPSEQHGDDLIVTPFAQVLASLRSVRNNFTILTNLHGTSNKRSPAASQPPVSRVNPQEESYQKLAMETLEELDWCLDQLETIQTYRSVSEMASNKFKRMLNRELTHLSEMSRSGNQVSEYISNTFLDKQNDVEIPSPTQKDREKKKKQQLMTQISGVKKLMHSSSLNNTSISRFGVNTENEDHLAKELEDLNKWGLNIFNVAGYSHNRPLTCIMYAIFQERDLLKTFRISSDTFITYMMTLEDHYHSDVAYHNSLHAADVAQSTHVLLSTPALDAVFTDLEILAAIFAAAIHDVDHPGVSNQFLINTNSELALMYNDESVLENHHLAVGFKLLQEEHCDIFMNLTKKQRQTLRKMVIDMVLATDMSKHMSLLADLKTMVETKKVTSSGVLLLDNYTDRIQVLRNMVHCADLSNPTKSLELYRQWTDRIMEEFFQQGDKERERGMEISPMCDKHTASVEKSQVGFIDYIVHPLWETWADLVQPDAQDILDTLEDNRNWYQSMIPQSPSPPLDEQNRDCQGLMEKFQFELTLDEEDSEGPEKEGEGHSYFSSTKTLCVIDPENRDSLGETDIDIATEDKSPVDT

Structure (SMILES): C[C@@H](NC(=O)c1cccnc1Oc1ccc(F)cc1)c1cccs1
- Activity [1]: 0%
- Activity [2]: 5%
- Activity [3]: 22%
- Inhibition (Cynomolgus monkey): 65%
- Activity [4]: 0%
- Activity [5]: 26%
- IC50 [6]: > 16 µM
- IC50 [7]: 0.925 µM
- Activity [8]: 3%
- Activity [9]: 15%
- Activity [10]: 6%
- Activity [11]: 23%
- Activity [12]: 60%
- Activity [13]: 0%
- Activity [14]: 23%
- IC50 (Phosphodiesterase 3): > 16 µM
- IC30 [15]: 0.016 µM
- Activity [16]: 0%
- Activity [17]: 25%
- Activity [18]: 12%
- IC50 [19]: 0.002 µM
- IC50 [20]: 0.004 µM
- IC50 [21]: 0.185 µM
- Activity [22]: 0%
- Activity [23]: 0%
- Activity [24]: 21%
- IC50 [25]: 1.38 µM
- Activity [26]: 0%
- IC50 [27]: > 16 µM
- Activity [28]: 0%
- EC50 [29]: 0.022 µM
- Activity [30]: 31%
- IC50 [31]: > 16 µM
- Activity [32]: 0%
- Activity [33]: 6%
- Activity [34]: 4%
- IC50 [35]: 0.107 µM
- Activity [36]: 14%
- IC50 [37]: > 16 µM
- Activity [38]: 14%
- Activity [39]: 1%
- Activity [40]: 0%
- IC50 [41]: > 16 µM
- Activity [42]: 0%
- Activity [43]: 27%
- Activity [44]: 0%
- Activity [45]: 3%
- Activity [46]: 0%
- Activity [47]: 0%
- Activity [48]: 12%
- Activity [49]: 9%
- Activity [50]: 10%
- IC50 [51]: > 16 µM
- Activity [52]: 0%
- Activity [53]: 0%
- Activity [54]: 22%
- Activity [55]: 0%
- Activity [56]: 12%
- Activity [57]: 23%
- Activity [58]: 9%
- Activity [59]: 27%
- Activity [60]: 22%
- Activity [61]: 8%
- Activity [62]: 18%
- Activity [63]: 0%
- Activity [64]: 5%
- Activity [65]: 4%

Structure (SMILES): COc1ccc(C2CNC(=O)C2)cc1OC1CCCC1 (centres undefined) [ROLIPRAM]
- IC50 [66]: > 16 µM
- IC50 (Phosphodiesterase 3): > 16 µM
- IC30 [15]: 0.283 µM
- IC50 [27]: > 16 µM
- IC50 [31]: > 16 µM
- IC50 [37]: > 16 µM
- IC50 [41]: > 16 µM
